Data: patent US9399070B2, “Compositions comprising a polymeric reagent and a pharmacologically active agent” (Nektar Therapeutics, priority 2003, dated 2016)

Assays:
NB2-11 cells = assay: NB2-11 rat lymphoma cell proliferation assay; conditions: in vitro; based on determined protein content; unmodified hGH = 100% bioactivity; preliminary
Protocol: The biological activity of hGH and the conjugates described in Table 1 was assessed in vitro using an NB2-11 rat lymphoma cell proliferation assay. Briefly, NB2-11 cells derived from a rat lymphoma were incubated with hGH, which leads to binding of the hGH molecule to its receptor on the cell surface. Receptor binding induces the signal transduction cascade, which results in proliferation of the cells. Assay results were based on determined protein content, and a 100% bioactivity of unmodified hGH.

hypophysectomized rat = assay: in vivo bioassay, weight gain in hypophysectomized rat (USP monograph for Somatotropin); conditions: for increase of weight (day 8): single high dose of 110 μg on day 1, day 8
Protocol: Conjugates 1M and 1D were further evaluated in a preliminary in vivo bioassay (hypophysectomized rat, USP monograph for Somatotropin®). Six groups of each of five animals received either hGH, 1M, 1D, or placebo in different dosing regimes. Weight gain as a pharmacodynamic output was measured on day 1, 3, 6, and 8.
The results of the experiment are summarized in FIG. 4 (weight gain following day 8) and FIG. 5 (weight gain over time course of study). […] Daily dosing of 5 μg of the hGH standard induced an overall weight gain of 4% on day 8, whereas the single high dose of 110 μg of 1M and ID produced an increase of weight of 7% and 9% respectively (FIG. 4).

Substance: di(mPEG-2-ButyrALD-40k) hGH [Sample 4D]
- Activity, % (NB2-11 cells): 0.2%

Substance: di(mPEG-2-NHS-40k) hGH [Sample 1D]
- Activity, % (NB2-11 cells): 0.4%
- animal death in study group (hypophysectomized rat; 1D bolus group, single dose 110 μg, five animals per group): death of one animal
- increase of weight (day 8) (hypophysectomized rat): 9%

Substance: hGH: Native, recombinant human growth hormone, unmodified
- overall weight gain on day 8 (hypophysectomized rat; daily dosing of 5 μg (cumulative 35 μg), day 8): 4%
- weight gain during the eight days (hypophysectomized rat; single high dose (110 μg, day 1)): no or moderate weight gain

Substance: mono(mPEG-2-ButyrALD-40k) hGH [Sample 4M]
- Activity, % (NB2-11 cells): 2.5%

Substance: mono(mPEG-2-NHS-40k) hGH [Sample 1M]
- increase of weight (day 8) (hypophysectomized rat): 7%
